Experimental data as given in patent US11090319B2, “Therapeutic uses of pharmaceutical compositions comprising cyclic boronic acid ester derivatives” (Melinta Subsidiary Corp., priority 2010, dated 2021).

Columns and labels:
Assay in all cases: Ceftazidime MIC with fixed concentration of BLI
Assay type in all cases: cell-based
[1] = tested on: KP1005 Klebsiella pneumoniae CTX-M-14; details: derivative at 10 μg/mL; KP1005 CTX-M-14
Procedure: (§1) Next, ceftazidime potentiation activity of several cyclic boronic acid ester derivatives was tested using a larger panel of strains expressing β-lactamase hydrolyzing enzymes. Ceftazidime MICs were determined alone and in the presence of fixed concentrations of various cyclic boronic acid ester derivatives.

[2] = tested on: ec310 Escherichia coli ACT-1; details: derivative at 10 μg/mL; ec310 ACT-1
Procedure: as §1

[3] = tested on: EC1004 Escherichia coli CMY-2; details: derivative at 10 μg/mL; EC1004 CMY-2
Procedure: as §1

[4] = tested on: AB1054 Acinetobacter baumannii OXA-23; details: derivative at 10 μg/mL; AB1054 OXA-23
Procedure: as §1

[5] = tested on: ec303 Escherichia coli TEM-12; details: derivative at 10 μg/mL; ec303 TEM-12
Procedure: as §1

[6] = tested on: ec306 Escherichia coli SHV-2; details: derivative at 10 μg/mL; ec306 SHV-2
Procedure: as §1

[7] = tested on: ec308 Escherichia coli SHV-5; details: derivative at 10 μg/mL; ec308 SHV-5
Procedure: as §1

[8] = tested on: pa1063 Pseudomonas aeruginosa GES-1; details: derivative at 10 μg/mL; pa1063 GES-1
Procedure: as §1

[9] = tested on: EC1008 Escherichia coli CTX-M3; details: derivative at 10 μg/mL
Procedure: as §1

[10] = tested on: CF1000 Citrobacter freundii Hyper AmpC expression; details: derivative at 10 μg/mL
Procedure: as §1

[11] = tested on: ec301 Escherichia coli TEM-6; details: derivative at 10 μg/mL; ec301 TEM-6
Procedure: as §1

[12] = tested on: EC1011 Escherichia coli TEM-26; details: derivative at 10 μg/mL; EC1011 TEM-26
Procedure: as §1

[13] = tested on: KP1012 Klebsiella pneumoniae SHV-18; details: derivative at 10 μg/mL; KP1012 SHV-18
Procedure: as §1

[14] = tested on: KP1007 Klebsiella pneumoniae OXA-10; details: derivative at 10 μg/mL; KP1007 OXA-10
Procedure: as §1

[15] = tested on: ec309 Escherichia coli MIR-1; details: derivative at 10 μg/mL; ec309 MIR-1
Procedure: as §1

[16] = tested on: ec307 Escherichia coli SHV-4; details: derivative at 10 μg/mL; ec307 SHV-4
Procedure: as §1

[17] = tested on: KP1008 Klebsiella pneumoniae KPC-2; details: derivative at 10 μg/mL; KP1008 KPC-2
Procedure: as §1

[18] = tested on: EC1010 Escherichia coli CMY-6; details: derivative at 10 μg/mL; EC1010 CMY-6
Procedure: as §1

[19] = tested on: AB1057 Acinetobacter baumannii OXA-58; details: derivative at 10 μg/mL; AB1057 OXA-58
Procedure: as §1

[20] = tested on: KP1004 Klebsiella pneumoniae KPC-2; details: derivative at 10 μg/mL; KP1004 KPC-2
Procedure: as §1

[21] = tested on: EC1012 Escherichia coli TEM-12; details: derivative at 10 μg/mL; EC1012 TEM-12
Procedure: as §1

[22] = tested on: EC1006 Escherichia coli FOX-5; details: derivative at 10 μg/mL; EC1006 FOX-5
Procedure: as §1

[23] = tested on: KP1010 Klebsiella pneumoniae SHV-12; details: derivative at 10 μg/mL; KP1010 SHV-12
Procedure: as §1

[24] = tested on: EC1014 Escherichia coli DHA-1; details: derivative at 10 μg/mL; EC1014 DHA-1
Procedure: as §1

[25] = tested on: ec300 Escherichia coli TEM-3; details: derivative at 10 μg/mL; ec300 TEM-3
Procedure: as §1

[26] = tested on: ECL1002 Enterobacter cloacae Hyper AmpC expression; details: derivative at 10 μg/mL
Procedure: as §1

[27] = tested on: ec302 Escherichia coli TEM-10; details: derivative at 10 μg/mL; ec302 TEM-10
Procedure: as §1

[28] = tested on: KP1009 Klebsiella pneumoniae CTX-M-15; details: derivative at 10 μg/mL; KP1009 CTX-M-15
Procedure: as §1

[29] = tested on: EC1009 Escherichia coli TEM-10; details: derivative at 10 μg/mL; EC1009 TEM-10
Procedure: as §1

[30] = tested on: PAM2035 Pseudomonas aeruginosa ampC mexA:tet; details: derivative at 10 μg/mL
Procedure: as §1

[31] = tested on: KX1000 Klebsiella oxytoca OXA-2; details: derivative at 10 μg/mL; KX1000 OXA-2
Procedure: as §1

Row | SMILES | Ceftazidime MIC with cyclic boronic acid ester derivative [1] | Ceftazidime MIC with cyclic boronic acid ester derivative [2] | Ceftazidime MIC with cyclic boronic acid ester derivative [3] | Ceftazidime MIC with cyclic boronic acid ester derivative [4] | Ceftazidime MIC with cyclic boronic acid ester derivative [5] | Ceftazidime MIC with cyclic boronic acid ester derivative [6] | Ceftazidime MIC with cyclic boronic acid ester derivative [7] | Ceftazidime MIC with cyclic boronic acid ester derivative [8] | Ceftazidime MIC with cyclic boronic acid ester derivative [9] | Ceftazidime MIC with cyclic boronic acid ester derivative [10] | Ceftazidime MIC with cyclic boronic acid ester derivative [11] | Ceftazidime MIC with cyclic boronic acid ester derivative [12] | Ceftazidime MIC with cyclic boronic acid ester derivative [13] | Ceftazidime MIC with cyclic boronic acid ester derivative [14] | Ceftazidime MIC with cyclic boronic acid ester derivative [15] | Ceftazidime MIC with cyclic boronic acid ester derivative [16] | Ceftazidime MIC with cyclic boronic acid ester derivative [17] | Ceftazidime MIC with cyclic boronic acid ester derivative [18] | Ceftazidime MIC with cyclic boronic acid ester derivative [19] | Ceftazidime MIC with cyclic boronic acid ester derivative [20] | other results
1 | O=C(O)C[C@@H]1CC[C@H](NC(=O)Cc2ccccc2)B(O)O1 [Compound 6, 2-((3R,6S)-2-hydroxy-3-(2-phenylacetamido)-1,2-oxaborinan-6-yl)acetic acid] | Z (MIC of greater than 8 μg/mL) | X (MIC of 1 μg/mL or less) | Y (MIC of greater than 1 μg/mL to 8 μg/mL) | Z (MIC of greater than 8 μg/mL) | Y (MIC of greater than 1 μg/mL to 8 μg/mL) | Z (MIC of greater than 8 μg/mL) | Z (MIC of greater than 8 μg/mL) | Z (MIC of greater than 8 μg/mL) | Y (MIC of greater than 1 μg/mL to 8 μg/mL) | Y (MIC of greater than 1 μg/mL to 8 μg/mL) | Z (MIC of greater than 8 μg/mL) | Z (MIC of greater than 8 μg/mL) | Y (MIC of greater than 1 μg/mL to 8 μg/mL) | Y (MIC of greater than 1 μg/mL to 8 μg/mL) | X (MIC of 1 μg/mL or less) | Z (MIC of greater than 8 μg/mL) | X (MIC of 1 μg/mL or less) | Y (MIC of greater than 1 μg/mL to 8 μg/mL) | Z (MIC of greater than 8 μg/mL) | Y (MIC of greater than 1 μg/mL to 8 μg/mL) | Ceftazidime MIC with cyclic boronic acid ester derivative [21]: Y (MIC of greater than 1 μg/mL to 8 μg/mL); Ceftazidime MIC with cyclic boronic acid ester derivative [22]: Y (MIC of greater than 1 μg/mL to 8 μg/mL); Ceftazidime MIC with cyclic boronic acid ester derivative [23]: Y (MIC of greater than 1 μg/mL to 8 μg/mL); Ceftazidime MIC with cyclic boronic acid ester derivative [24]: X (MIC of 1 μg/mL or less); Ceftazidime MIC with cyclic boronic acid ester derivative [25]: Z (MIC of greater than 8 μg/mL); Ceftazidime MIC with cyclic boronic acid ester derivative [26]: Y (MIC of greater than 1 μg/mL to 8 μg/mL); Ceftazidime MIC with cyclic boronic acid ester derivative [27]: Z (MIC of greater than 8 μg/mL); Ceftazidime MIC with cyclic boronic acid ester derivative [28]: Z (MIC of greater than 8 μg/mL); Ceftazidime MIC with cyclic boronic acid ester derivative [29]: Z (MIC of greater than 8 μg/mL); Ceftazidime MIC with cyclic boronic acid ester derivative [30]: Y (MIC of greater than 1 μg/mL to 8 μg/mL); Ceftazidime MIC with cyclic boronic acid ester derivative [31]: Y (MIC of greater than 1 μg/mL to 8 μg/mL)
2 | Cl.N[C@H]1CCC(CC(=O)O)OB1O (stereo partly drawn) [Compound 7, 2-((3R)-3-amino-2-hydroxy-1,2-oxaborinan-6-yl)acetic acid hydrochloride] | Z (MIC of greater than 8 μg/mL) | Z (MIC of greater than 8 μg/mL) | Z (MIC of greater than 8 μg/mL) | Z (MIC of greater than 8 μg/mL) | Z (MIC of greater than 8 μg/mL) | Z (MIC of greater than 8 μg/mL) | Z (MIC of greater than 8 μg/mL) | Z (MIC of greater than 8 μg/mL) | Z (MIC of greater than 8 μg/mL) | Z (MIC of greater than 8 μg/mL) | Z (MIC of greater than 8 μg/mL) | Z (MIC of greater than 8 μg/mL) | Z (MIC of greater than 8 μg/mL) | Z (MIC of greater than 8 μg/mL) | Z (MIC of greater than 8 μg/mL) | Z (MIC of greater than 8 μg/mL) | Z (MIC of greater than 8 μg/mL) | Z (MIC of greater than 8 μg/mL) | Z (MIC of greater than 8 μg/mL) | Z (MIC of greater than 8 μg/mL) | Ceftazidime MIC with cyclic boronic acid ester derivative [21]: Z (MIC of greater than 8 μg/mL); Ceftazidime MIC with cyclic boronic acid ester derivative [22]: Z (MIC of greater than 8 μg/mL); Ceftazidime MIC with cyclic boronic acid ester derivative [23]: Z (MIC of greater than 8 μg/mL); Ceftazidime MIC with cyclic boronic acid ester derivative [24]: Z (MIC of greater than 8 μg/mL); Ceftazidime MIC with cyclic boronic acid ester derivative [25]: Z (MIC of greater than 8 μg/mL); Ceftazidime MIC with cyclic boronic acid ester derivative [26]: Z (MIC of greater than 8 μg/mL); Ceftazidime MIC with cyclic boronic acid ester derivative [27]: Z (MIC of greater than 8 μg/mL); Ceftazidime MIC with cyclic boronic acid ester derivative [28]: Z (MIC of greater than 8 μg/mL); Ceftazidime MIC with cyclic boronic acid ester derivative [29]: Z (MIC of greater than 8 μg/mL); Ceftazidime MIC with cyclic boronic acid ester derivative [30]: Z (MIC of greater than 8 μg/mL); Ceftazidime MIC with cyclic boronic acid ester derivative [31]: Y (MIC of greater than 1 μg/mL to 8 μg/mL)
